Residues, ends and D or L forms follow the SMILES beside them. *: point of attachment. Cbz = O=C(OCc1ccccc1)*; CH2F = FC*
Assays:
[1] = target: T1, Peregrin (Homo sapiens) (UniProt P55201); settings: Compound concentration 20.0 uM
T1 sequence (whole entry): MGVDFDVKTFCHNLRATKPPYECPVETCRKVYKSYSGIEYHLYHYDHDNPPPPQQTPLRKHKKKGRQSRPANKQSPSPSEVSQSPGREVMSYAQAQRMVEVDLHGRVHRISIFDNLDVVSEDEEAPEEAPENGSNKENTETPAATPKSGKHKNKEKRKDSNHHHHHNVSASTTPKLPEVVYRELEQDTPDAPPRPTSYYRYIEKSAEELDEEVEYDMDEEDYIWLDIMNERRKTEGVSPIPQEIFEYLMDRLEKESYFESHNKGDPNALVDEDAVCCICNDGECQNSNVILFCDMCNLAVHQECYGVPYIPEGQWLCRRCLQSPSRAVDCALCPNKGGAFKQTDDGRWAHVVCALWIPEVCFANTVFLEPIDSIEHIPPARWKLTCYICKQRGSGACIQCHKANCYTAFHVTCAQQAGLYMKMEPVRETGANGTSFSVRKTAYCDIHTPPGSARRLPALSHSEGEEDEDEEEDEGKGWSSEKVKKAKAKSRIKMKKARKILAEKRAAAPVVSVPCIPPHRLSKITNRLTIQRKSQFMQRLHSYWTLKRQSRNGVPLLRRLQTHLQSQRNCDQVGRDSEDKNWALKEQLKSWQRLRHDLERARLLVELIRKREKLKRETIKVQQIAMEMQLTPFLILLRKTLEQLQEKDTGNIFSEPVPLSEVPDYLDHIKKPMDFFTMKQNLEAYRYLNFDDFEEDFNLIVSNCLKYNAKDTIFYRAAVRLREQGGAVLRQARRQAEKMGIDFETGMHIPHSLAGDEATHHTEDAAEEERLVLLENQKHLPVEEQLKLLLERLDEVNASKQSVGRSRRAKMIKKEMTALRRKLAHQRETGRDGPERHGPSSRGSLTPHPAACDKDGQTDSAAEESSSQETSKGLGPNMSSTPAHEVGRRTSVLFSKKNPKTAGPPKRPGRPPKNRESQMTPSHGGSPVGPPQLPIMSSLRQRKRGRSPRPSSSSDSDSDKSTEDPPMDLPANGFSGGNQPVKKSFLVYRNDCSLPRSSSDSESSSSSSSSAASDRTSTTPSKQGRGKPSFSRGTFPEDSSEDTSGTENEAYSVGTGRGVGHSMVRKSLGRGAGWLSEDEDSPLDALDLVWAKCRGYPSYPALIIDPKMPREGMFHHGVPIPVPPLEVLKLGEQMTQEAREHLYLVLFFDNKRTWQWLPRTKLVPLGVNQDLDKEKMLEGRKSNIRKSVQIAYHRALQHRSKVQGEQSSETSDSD

[2] = target: Fibroblast growth factor receptor 2 (Homo sapiens) (UniProt P21802); settings: Compound concentration 20.0 uM
Fibroblast growth factor receptor 2 (Homo sapiens), sequence (P21802 22-821 limits assumed): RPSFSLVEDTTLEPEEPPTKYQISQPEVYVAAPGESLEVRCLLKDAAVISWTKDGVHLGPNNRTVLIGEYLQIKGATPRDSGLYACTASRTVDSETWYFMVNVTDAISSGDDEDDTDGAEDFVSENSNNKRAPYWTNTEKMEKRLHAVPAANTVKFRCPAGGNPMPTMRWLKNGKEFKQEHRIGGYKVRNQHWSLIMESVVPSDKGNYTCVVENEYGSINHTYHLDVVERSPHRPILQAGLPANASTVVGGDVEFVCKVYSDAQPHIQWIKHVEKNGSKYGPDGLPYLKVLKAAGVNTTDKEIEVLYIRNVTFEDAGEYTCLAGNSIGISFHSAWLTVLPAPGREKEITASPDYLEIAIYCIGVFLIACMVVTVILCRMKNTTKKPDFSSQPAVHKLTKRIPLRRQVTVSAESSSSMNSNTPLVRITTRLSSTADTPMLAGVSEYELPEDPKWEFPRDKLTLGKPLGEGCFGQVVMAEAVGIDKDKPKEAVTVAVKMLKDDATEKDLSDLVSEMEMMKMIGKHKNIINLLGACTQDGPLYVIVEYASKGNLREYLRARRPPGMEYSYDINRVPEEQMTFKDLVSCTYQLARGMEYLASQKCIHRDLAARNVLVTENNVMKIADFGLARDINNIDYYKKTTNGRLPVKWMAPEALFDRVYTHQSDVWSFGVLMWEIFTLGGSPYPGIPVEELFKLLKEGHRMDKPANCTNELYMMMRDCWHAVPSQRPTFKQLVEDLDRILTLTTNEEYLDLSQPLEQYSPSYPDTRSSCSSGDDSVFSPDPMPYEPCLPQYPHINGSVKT
Description: Thermal Shift Assay. Domain: start/stop: T457-E768

Compound	ΔTm [1]	ΔTm [2]	ΔTm ([1]; Protein concentration 2.0 uM)
CCC(=O)N1CCOc2c(cc(-c3cc(OC)cc(OC)c3)cc2C(=O)N[C@H]2CCCN(C)C2)C1	-0.83 °C	0.29 °C	–
CC(C)c1ccc(-c2cc(=O)c3ccccc3o2)cc1	-0.32 °C	-0.13 °C	–
CN(CCC(Oc1ccc(-c2ccccc2)cc1)c1ccc(F)cc1)CC(=O)O (stereo not given)	1.93 °C	0.44 °C	–
CNc1ncc2cc(-c3cc(NC(=O)NCCC(C)(C)C)c(F)cc3C)c(C)nc2n1	-0.16 °C	5.58 °C	–
NS(=O)(=O)OC[C@H]1C[C@@H](Nc2ccnc3cc(-c4cccc(SC(F)(F)F)c4)nn23)[C@H](O)[C@@H]1O	3.28 °C	-0.4 °C	–
COc1ccc(C(CN(C)C)C2(O)CCCCC2)cc1 (stereo not given)	-0.6 °C	0.29 °C	–
O=S(=O)(O)c1ccc2cc(/N=N/c3cc(S(=O)(=O)O)c4cccnc4c3O)ccc2c1	-0.89 °C	-0.08 °C	–
C[C@H](NC(=O)[C@H](Cc1ccccc1)NC(=O)OCc1ccccc1)C(=O)CF	-1.31 °C	0.14 °C	–
C/C(=N\NC(=O)c1cccc(S(=O)(=O)N2CCOCC2)c1)c1cc(Cl)ccc1O	2.44 °C	-0.21 °C	–
CN(CC[C@@H](Oc1ccc(-c2ccccc2)cc1)c1ccc(F)cc1)CC(=O)O	-0.36 °C	0.18 °C	–
C[C@H](NC(=O)CCc1nc2ccccc2c(=O)[nH]1)c1ccccc1	-0.15 °C	0.69 °C	–
CCn1nc(C2CC2)cc1Nc1nc(C(=O)NC)nc2[nH]c3cc(-c4c(C)noc4C)c(OC)cc3c12	0.68 °C	-0.1 °C	–
Cc1cc(C)c(CNC(=O)c2cc(-c3ccc(N4CCN(C)CC4)nc3)cc3c2c(C)cn3C(C)C)c(=O)[nH]1	-1.27 °C	0.85 °C	–
CC(C)=C[C@H]1C[C@H](C)[C@]2(CC[C@]3(C)C[C@H]4[C@H](C(=O)C[C@@]4(C)O)/C(C=O)=C\C[C@H]32)O1	-0.47 °C	0.16 °C	–
Cc1ccc2[nH]c3c(c2c1)CCCC3C(N)=O (stereo not given)	0.79 °C	0.03 °C	–
O=C1C(P(=O)(O)O)CC(O)N1O (stereo not given)	1.52 °C	-0.05 °C	–
CNC(=O)N1CCc2c(c(N3CCCc4cc(-c5cnn(C)c5)c(C(F)F)cc43)nn2C2CCOCC2)C1	-0.21 °C	-0.44 °C	–
CN(C)CC(c1ccc(O)cc1)C1(O)CCCCC1 (stereo not given)	-1.07 °C	-0.09 °C	–
Cc1c(CN2CCC(Nc3ncnc4sc(CC(F)(F)F)cc34)CC2)ccc2[nH]c(C#N)cc12	-2.53 °C	0.11 °C	–
COc1ccc(OC)c(-c2nnc3n2N=C(c2ccc(OC)c(OC)c2)CS3)c1	0.8 °C	0.4 °C	–

Compound	ΔTm [1]	ΔTm [2]	ΔTm ([1]; Protein concentration 2.0 uM)
N#Cc1cc(F)cc(Oc2ccc3c(c2C(F)F)[C@@H](O)C(F)(F)S3(=O)=O)c1	2.23 °C	-0.59 °C	–
Cn1nc(C(C)(C)C)cc1C(=O)NC(Cc1cccc(Cl)c1)C(=O)NCC#N (stereo not given)	2.3 °C	0.05 °C	–
CCOCC1(COCC)CCC(c2n[nH]cc2CN(C)CCNC)CC1	-0.75 °C	-0.35 °C	–
COCc1nc(C(F)(F)F)[nH]c1-c1cc(C(=O)N2CC(c3ccc(C#N)cc3)C2)c(C)cc1C	1.19 °C	0.03 °C	–
Cc1nn(CC(F)(F)F)cc1Nc1ncc(Br)c(NCc2ccc(S(N)(=O)=O)cc2)n1	-0.36 °C	2.95 °C	–
CCNC(=O)/C=C/c1cccc(Br)c1	-1.37 °C	-0.4 °C	–
O=C1C(=O)N(Cc2ccccc2)c2ccc(S(=O)(=O)N3CCC[C@H]3COc3ccc(C(F)(F)F)cc3)cc21	-2.14 °C	1.01 °C	–
C(=C\c1ccccc1)/CN1CCN(CCOC(c2ccccc2)c2ccccc2)CC1	0.95 °C	-0.04 °C	–
Nc1ncnc2c1ncn2[C@@H]1O[C@H](C[C@@H](N)CC[C@H](N)C(=O)O)[C@@H](O)[C@H]1O	-1.27 °C	-1.33 °C	–
O=c1cc(-c2ccc(O)cc2)oc2c(CN3CCN(Cc4cccs4)CC3)c(O)cc(O)c12	3.1 °C	1.05 °C	–
CC(=O)N[C@H](C(=O)N[C@@H](CC(=O)O)C(=O)N[C@H](C(=O)N[C@@H](C)C(=O)N[C@H](C=O)CC(=O)O)C(C)C)C(C)C (Ac-VDVAD-aldehyde)	-0.92 °C	-0.83 °C	–
N=C(N)N/N=C/c1cccc(Cl)c1Cl	-0.71 °C	0.87 °C	–
COc1ccc(-n2c(SCCCN3C(=O)c4cccc5cccc(c45)C3=O)nnc2-c2ccncc2)cc1	0.39 °C	0.21 °C	–
Cc1ccc2c(c1)nc(/C=C/c1cccc3cccnc13)n2-c1cccc(OCCCN2CCN(C)CC2)c1	0.16 °C	0.24 °C	–
COC(=O)CC[C@H](NC(=O)[C@H](C)NC(=O)OCc1ccccc1)C(=O)N[C@H](C(=O)N[C@@H](CC(=O)OC)C(=O)CF)C(C)C (Cbz-AE(OMe)VD(OMe)-CH2F)	-0.82 °C	0.54 °C	–
Cc1cc(C)nc(SCC(=O)Nc2ncc(Cc3cccc4ccccc34)s2)n1	3 °C	-1.85 °C	–
Cc1ncsc1-c1ccc(CNC(=O)[C@@H]2C[C@@H](O)CN2C(=O)[C@@H](NC(=O)COCC(C)(COCCOCCOCCNC(=O)C[C@@H]2N=C(c3ccc(Cl)cc3)c3c(sc(C)c3C)-n3c(C)nnc32)COCCOCCOCCNC(=O)C[C@@H]2N=C(c3ccc(Cl)cc3)c3c(sc(C)c3C)-n3c(C)nnc32)C(C)(C)C)cc1	-5.29 °C	-1.18 °C	–
O=C(O)C1=CCCN(CCOC(c2ccc(C(F)(F)F)cc2)c2ccc(C(F)(F)F)cc2)C1	0.47 °C	-0.15 °C	–
COc1cccc(-c2nccc3c2CN(c2ccccc2)C3=O)c1	-0.63 °C	0.77 °C	–
Cc1nc(Nc2ncc(C(=O)Nc3c(C)cccc3Cl)s2)cc(N2CCN(CCO)CC2)n1	-0.2 °C	4.7 °C	–

Compound	ΔTm [1]	ΔTm [2]	ΔTm ([1]; Protein concentration 2.0 uM)
COc1cc2/c(=N/c3ccc(Br)cc3F)nc[nH]c2cc1OCC1CCN(C)CC1	-0.84 °C	5.47 °C	–
Cn1c(=O)cc(N2CCC[C@@H](N)C2)n(Cc2cc(F)ccc2C#N)c1=O	0.76 °C	0.72 °C	–
Cn1c(=O)c2c(nc(N3CCNCC3)n2Cc2nnc(-c3ccc(Cl)c(Cl)c3)o2)n(C)c1=O	-0.83 °C	0.08 °C	–
CCCCCCCCCCCCCCCCNNC(=O)c1cccs1	-0.84 °C	0.53 °C	–
NS(=O)(=O)c1cc(-c2nnn[nH]2)c(NCc2cccs2)cc1Cl	–	0.38 °C	2 °C
CC(=O)N[C@@H](CC(C)C)C(=O)N[C@@H](CCC(=O)O)C(=O)N[C@H](C(=O)N[C@H](C=O)CC(=O)O)C(C)C (Ac-LEVD-aldehyde)	-1.25 °C	0.88 °C	–
CCc1c(-c2ccccc2)c(-c2ccccc2)nn1-c1ccccc1-c1cccc(OCC(=O)O)c1	-3.01 °C	-1.61 °C	–
COc1ccc(-c2ccc(-c3cn(C(=O)N4CCCCC4c4ccccc4)nn3)cc2)cc1 (stereo not given)	-1.62 °C	0.03 °C	–
Cc1cc(S(C)(=O)=O)c(S(C)(=O)=O)cc1C(=O)NC(=N)N	2.74 °C	0 °C	–
Cc1ccc(F)c2cc(C(=O)N[C@@H]3CCC[C@H](N4CC[C@H](N(C)S(C)(=O)=O)C4)C3)[nH]c12	-0.28 °C	-0.4 °C	–
CC(=O)N[C@@H](Cc1ccc(O)cc1)C(=O)N[C@H](C(=O)N[C@@H](C)C(=O)N[C@@H](CC(=O)O)C(=O)CCl)C(C)C	-1.75 °C	0.63 °C	–
CCCCCn1c(C)c(C(=O)c2cccc3ccccc23)c2ccccc21	2.08 °C	0.39 °C	–
CCCCCCCCCCCCC/C=C/[C@@H](O)[C@H](CO)NC(=O)CBr	-2.74 °C	-18.9 °C	–
CS(=O)(=O)Nc1ccc2oc3c(OC(F)F)ccc(C(=O)Nc4c(Cl)cncc4Cl)c3c2c1	0.46 °C	-0.38 °C	–
O=S(=O)(CSc1nnc(Br)n1Cc1ccc(Br)c2ccccc12)Nc1cccnc1	1.59 °C	-0.32 °C	–
Cc1ccsc1C(=CCCN1CCC[C@@H](C(=O)O)C1)c1sccc1C	0.44 °C	0.37 °C	–
CNC(=O)c1cc(Nc2ccnc(Nc3ccc(CCNC(=O)OC(C)(C)C)cc3)n2)n[nH]1	-1.87 °C	0.64 °C	–
Cn1nc2c(=O)n(CC3(O)CCN(C(=O)C[C@H](c4ccccc4)C(F)(F)F)CC3)cnc2c1-c1ccc(CN)cc1	1.89 °C	-0.7 °C	–
CN1CC[C@@H](Oc2ccc(F)c(-c3nc4c(o3)C(=O)c3ccccc3C4=O)c2Cl)C1	0.26 °C	-0.38 °C	–
CCOc1ccc(Cc2cc([C@@H]3O[C@H](CO)[C@@H](O)[C@H](O)[C@H]3O)ccc2Cl)cc1	-0.19 °C	0.15 °C	–

— ChEMBL document CHEMBL5724796, “Tm Shift (DSF) assay results for EUbOPEN Chemogenomics Library” (2024)
